Among the data in the NIST ThermoML archive (doi:10.1016/j.tca.2015.01.003) are mass density values, retold here.

± gives the expanded uncertainty stated by the source.

A short description of this data set: wn = mass fraction of the nth substance listed. As to conditions: 288.15 K, 100 kPa, Liquid, Vibrating tube method.

For `O=S(=O)([O-])[O-].[Li+].[Li+]` [lithium sulfate] + O, under “w1 = 0.2601”, the mass density is reported as 1237.48 ± 1.6 kg/m3. As to `O=S(=O)([O-])[O-].[K+].[K+]` [potassium sulfate] + O, the mass density (w1 = 0.0924) is on record as 1077.03 ± 1.2 kg/m3.

Broadly, the mass density is mass per unit of volume.
